# Data taken from the supplement of paper PMC11208160.
# Assay: recombinant barcode read abundance after kanamycin selection (control-corrected) (log10(CPM+1)); higher = more efficient recombination; sequences stand for … in AGTGCAGAGAAAATCGGCCAGTTTTCTCTGCCTGCAGTCCGCATGCCGT…AGATTTATGCAGCGGACTGCCTTTCTCCCAAAGTGATAAACCGGACAGTATCATGGACCGGTTTTCCCGGTAATCCGTATTTGCAAGGTTGGTTTCACT; site = the 11-nt target
# Description: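 Pooled E. coli target-specificity screen for the IS621 bridge recombinase. Each library plasmid pairs an 11-nt target (CT core) with a bridge RNA whose target-binding loop (9-nt LTG + 4-nt RTG) is reprogrammed; the rest of the 177-nt WT IS621 bridge RNA scaffold is fixed. The plasmid is co-electroporated with a WT donor plasmid; recombinase is induced with 0.1 mM IPTG and recombinants are selected on kanamycin. Recombinant barcodes are sequenced, converted to CPM, averaged over two biological replicates and corrected by the unselected control CPM. Molecule = full bridge RNA written as DNA: LTG = specificity nt 1-9, RTG = reverse complement of specificity nt 8-11, in the WT scaffold.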
# 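Also: IS621 recombinase and bridge RNA in Escherichia coli cells.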
row,Sequence,recombinant barcode read abundance (log10)
1,AGCGTTGCTTGGGTTCTAACCTGTTGCCT (site AGCATTGCTAG),0.558
2,TAGGCTCCTTGGGTTCTAACCTGTTGCAA (site TAGGCTCCTTT),1.41
3,ACTCGGCCTTGGGTTCTAACCTGTTGCCT (site ACTCGGCCTAC),0.0497
4,TAATCCTCTTGGGTTCTAACCTGTTGCCT (site AAATCCTCTAG),0.984
5,CATCGAGCTTGGGTTCTAACCTGTTGCCG (site CACCGAGCTCG),0.43
6,TGGCTCCCTTGGGTTCTAACCTGTTGCCG (site TGGCTCCCTCG),1.35
7,TCGTGCTCTTGGGTTCTAACCTGTTGCCT (site TCGTGCACTAG),0.0667
8,GTCAACTCTTGGGTTCTAACCTGTTGCCT (site GTGAACTCTAG),0.00674
9,TCGGAGTCTTGGGTTCTAACCTGTTGCCT (site TCGGAGTCTAT),0.503
10,TGACCAGCTTGGGTTCTAACCTGTTGCCT (site TGAGAAGCTAG),0.0639
11,CACACTACTTGGGTTCTAACCTGTTGCTG (site CACACTACTCA),0.818
12,CCGTAGTCTTGGGTTCTAACCTGTTGCCT (site CCGTAGTCTAG),0.899
13,AATTGCCCTTGGGTTCTAACCTGTTGCCT (site AGTTGCCCTAG),0.0557
14,GTCGTACCTTGGGTTCTAACCTGTTGCCT (site GTCTTACCTAG),0.221
15,AGGCCGGCTTGGGTTCTAACCTGTTGCCG (site AGGCCGCCTCG),0.294
16,GCAGCCTCTTGGGTTCTAACCTGTTGCGT (site GCAGCCTCTAC),2.08
17,GCGCTAGCTTGGGTTCTAACCTGTTGCCT (site ACGCTAGCTAG),0.125
18,CGGGTGCCTTGGGTTCTAACCTGTTGCCT (site CTGGTGCCTAG),0.0879
19,GACTCTCCTTGGGTTCTAACCTGTTGCCT (site GACTCTCCTAG),0.0776
20,GAGTACCCTTGGGTTCTAACCTGTTGCCT (site GTGTACCCTAG),0.0322
21,AATAGAGCTTGGGTTCTAACCTGTTGCAG (site AATAGAGCTCT),2.23

row,Sequence,recombinant barcode read abundance (log10)
1,CTAGGCCCTTGGGTTCTAACCTGTTGCAT (site CTAGGCCCTAG),0.318
2,CAAGTACCTTGGGTTCTAACCTGTTGCCT (site AAAGTACCTAG),0.343
3,ACCACAGCTTGGGTTCTAACCTGTTGCCT (site ACCAAAGCTTG),0.16
4,CTAGCGACTTGGGTTCTAACCTGTTGCTG (site CTAGCCACTTA),0
5,GTCTAAGCTTGGGTTCTAACCTGTTGCCG (site GTCTACGCTTG),0.0178
6,TTCGTAGCTTGGGTTCTAACCTGTTGCCT (site TTCGTAGCTAG),1.22
7,CGGTAACCTTGGGTTCTAACCTGTTGCCT (site GGGTAACCTAG),0.185
8,ACTAGGACTTGGGTTCTAACCTGTTGCGC (site ACTAGGACTCC),0.478
9,TACGCTCCTTGGGTTCTAACCTGTTGCAT (site TACGCTCCTAC),0.0178
10,TGTTGGACTTGGGTTCTAACCTGTTGCTT (site TCTTAGACTAA),0.0262
11,TGTTCTACTTGGGTTCTAACCTGTTGCTT (site TGGTCTACTAA),0.0191
12,TCGGGATCTTGGGTTCTAACCTGTTGCCT (site GCGGGATCTAG),0.0188
13,GGTGCTCCTTGGGTTCTAACCTGTTGCAT (site GGTGCTCCTAT),0.914
14,TAGCACACTTGGGTTCTAACCTGTTGCGG (site TAGCCCACTCC),0.112
15,CTGTTATCTTGGGTTCTAACCTGTTGCCT (site CTATTATCTAG),0.127
16,TCTGACTCTTGGGTTCTAACCTGTTGCAT (site TCTGACTCTAT),1.59
17,GAAATGGCTTGGGTTCTAACCTGTTGCCT (site GAAACGGCTAG),0.237
18,GCACGTGCTTGGGTTCTAACCTGTTGCCT (site GCCCGTGCTAG),0.141
19,TAAAGGCCTTGGGTTCTAACCTGTTGCTA (site TAAAGGCCTTA),0.159
20,CTCATACCTTGGGTTCTAACCTGTTGCGT (site CTCATACCTAC),1.92
21,ACTTAGACTTGGGTTCTAACCTGTTGCCA (site ACTTAGACTCG),0.408

row,Sequence,recombinant barcode read abundance (log10)
1,CTAGACTCTTGGGTTCTAACCTGTTGCTG (site CTAGACTCTGA),0.076
2,GAGTTGCCTTGGGTTCTAACCTGTTGCGT (site GAGTTACCTAC),1.96
3,AAGAAAGCTTGGGTTCTAACCTGTTGCCT (site AAGACAGCTAG),0.0854
4,GAGGCTTCTTGGGTTCTAACCTGTTGCCT (site GTGGCTTCTAG),0.515
5,TCGTGCTCTTGGGTTCTAACCTGTTGCCT (site TCGTGCTCTAG),0.0894
6,GCGCGTGCTTGGGTTCTAACCTGTTGCCT (site GCCCGTGCTAG),0.539
7,TCATCTCCTTGGGTTCTAACCTGTTGCCT (site CCATCTCCTAG),0.0972
8,TTACAGGCTTGGGTTCTAACCTGTTGCCG (site GGCATCCCTTA),0.0374
9,CTACCGTCTTGGGTTCTAACCTGTTGCGG (site CTACCATCTCG),0.285
10,TCCAAGACTTGGGTTCTAACCTGTTGCAG (site ACCAAGACTCG),0.00865
11,GCGTACCCTTGGGTTCTAACCTGTTGCCT (site GGGTACCCTAG),0.0245
12,CCGCTAGCTTGGGTTCTAACCTGTTGCCT (site GCGCTAGCTAG),0.0389
13,CAAACTCCTTGGGTTCTAACCTGTTGCAT (site CAAACTCCTAC),0.0268
14,CCTGGGACTTGGGTTCTAACCTGTTGCGG (site CCTGGGACTGC),0.532
15,AGGGAAGCTTGGGTTCTAACCTGTTGCCT (site AGGGAAGCTAG),0.879
16,ATAGGGTCTTGGGTTCTAACCTGTTGCCT (site AGAGGGTCTAG),0.211
17,TCTTATTCTTGGGTTCTAACCTGTTGCCT (site TCTTATTCTAG),0.0342
18,CATATAGCTTGGGTTCTAACCTGTTGCAT (site CATATAGCTAT),0.693
19,GGTCCTACTTGGGTTCTAACCTGTTGCCT (site GTTCCTACTAG),0.187
20,GGGCTCACTTGGGTTCTAACCTGTTGCCT (site GGGCTCACTAG),0.983
21,ACGCATTCTTGGGTTCTAACCTGTTGCCT (site ACGCATTCTAG),0.355

row,Sequence,recombinant barcode read abundance (log10)
1,TCCCACTCTTGGGTTCTAACCTGTTGCCT (site TCACACTCTAG),0.158
2,CGGACTTCTTGGGTTCTAACCTGTTGCCT (site CCGACTTCTAG),0.049
3,AGGAACCCTTGGGTTCTAACCTGTTGCTC (site AGGAACCCTCA),1.05
4,TTCACAGCTTGGGTTCTAACCTGTTGCCT (site TTCACAGCTAG),0.133
5,AGGCTCCCTTGGGTTCTAACCTGTTGCCT (site AGTCTCCCTAG),0.619
6,AGCTGATCTTGGGTTCTAACCTGTTGCCT (site AGCTGATCTAG),0.261
7,ACTGATACTTGGGTTCTAACCTGTTGCCT (site ACTGATACTAG),1.84
8,CTCGACCCTTGGGTTCTAACCTGTTGCCT (site CTGGATCCTAG),0.0491
9,GCCAACCCTTGGGTTCTAACCTGTTGCGT (site GCCAACCCTAT),0.162
10,GAAGCGCCTTGGGTTCTAACCTGTTGCCT (site GAAGTGCCTAG),0.397
11,GTGTACCCTTGGGTTCTAACCTGTTGCAC (site AGTATAACTCA),0.132
12,TTGAATCCTTGGGTTCTAACCTGTTGCCA (site TTGAGTCCTTA),0.0534
13,TGTGAGTCTTGGGTTCTAACCTGTTGCAT (site TGTGAGTCTAT),1.7
14,CTCATTCCTTGGGTTCTAACCTGTTGCCT (site CTCATTCCTAG),0.129
15,GATGTGCCTTGGGTTCTAACCTGTTGCGT (site GATGTGCCTAC),2.57
16,CTAAGCTCTTGGGTTCTAACCTGTTGCCT (site ATAAGCTCTAG),0.129
17,GGCACAACTTGGGTTCTAACCTGTTGCCT (site GGCACTACTAG),0.0426
18,CTACTAGCTTGGGTTCTAACCTGTTGCAA (site CTACTAGCTCT),0.617
19,AGTCACACTTGGGTTCTAACCTGTTGCTA (site AGTCACACTTA),1.48
